Patent US7056892B2, “Glucopyranosyloxypyrazole derivatives, medicinal compositions containing the same and intermediates in the production thereof” (Kissei Pharmaceutical Co., Ltd., priority 1999, dated 2006)

Legend:
ICR mice [1] = experiment: Acute toxicity test, Method B (subcutaneous); assay type: in vivo; conditions: 600 mg/kg subcutaneous, male ICR mice, 5 animals, observation until 24 hours
Experimental: By adding of the solvent (saline:polyethylene glycol 400:ethanol=5:4:1) to the test compound, 200 mg/mL suspension was prepared. As experimental animal, male 5 weeks of age ICR mice fasted for 4 hours (Clea Japan, 26–33 g, 5 animals in each group) were used. The test suspension described above was subcutaneously administrated to the experimental animals described above at the dose of 3 mL/kg (600 mg/kg) and then observation was performed until 24 hours after the administration.

SD rats [2] = experiment: Assay for the facilitatory effect on urinary glucose excretion, Method B (intravenous); assay type: in vivo, rat; conditions: oral glucose 2 g/kg, 24 hours, per 200 g of body weight
Experimental: (§1) Assay for the Facilitatory Effect on Urinary Glucose Excretion
As experimental animal, overnight fasted SD rats (SLC, male, 7 weeks of age, 180–220 g) were used. A test compound (10 mg) was suspended or dissolved in 300 μL of ethanol and dissolved by adding of 1.2 mL of polyethylene glycol 400 and 1.5 mL of saline and then 3.3 mg/mL solution was prepared. A part of this solution was diluted with the solvent (saline:polyethylene glycol 400:ethanol=5:4:1) and then each solution at the concentration of 3.3, 0.33 or 0.033 (mg/mL) was prepared. After the body weights of the rats were measured, the test compound solution was administrated by intravenous injection to the tail vein at the dose of 3 mL/kg (10, 1 and 0.1 mg/kg). For the control, just only the solvent (saline:polyethylene glycol 400:ethanol=5:4:1) was administrated by intravenous injection to the tail vein at the dose of 3 mL/kg. Immediately after this intravenous administration, 200 g/L glucose solution was orally administered at the dose of 10 mL/kg (2 g/kg). The intravenous administration was performed with 26G needle and 1 mL syringe. The oral administration was performed with gastric tube for rat and 2.5 mL syringe. The head count in one group was 3. Collection of urine was performed in metabolic cage after the glucose administration was finished. The sampling time for collection of urine was 24 hours after the glucose administration. After collection of urine was finished, the urine volume was recorded and the urinary glucose concentration was measured. The glucose concentration was measured with a kit for laboratory test: Glucose B-Test WAKO (Wako Pure Chemical Industries, Ltd.). The amount of urinary glucose excretion in 24 hours per 200 g of body weight was calculated from urine volume, urinary glucose concentration and body weight.

human SGLT2 = target: T1, human SGLT2 (Homo sapiens, UniProt P31639, I433V); experiment: Assay for inhibitory effect on human SGLT2 activity (uptake of methyl-α-D-glucopyranoside in COS-7 cells expressing transiently human SGLT2); assay type: cell-based
T1 construct: expressed in transfected cells; host or cells: COS-7 cells (RIKEN CELL BANK RCB0539), transient electroporation of plasmid KL29
T1 sequence (P31639 1-672 I433V): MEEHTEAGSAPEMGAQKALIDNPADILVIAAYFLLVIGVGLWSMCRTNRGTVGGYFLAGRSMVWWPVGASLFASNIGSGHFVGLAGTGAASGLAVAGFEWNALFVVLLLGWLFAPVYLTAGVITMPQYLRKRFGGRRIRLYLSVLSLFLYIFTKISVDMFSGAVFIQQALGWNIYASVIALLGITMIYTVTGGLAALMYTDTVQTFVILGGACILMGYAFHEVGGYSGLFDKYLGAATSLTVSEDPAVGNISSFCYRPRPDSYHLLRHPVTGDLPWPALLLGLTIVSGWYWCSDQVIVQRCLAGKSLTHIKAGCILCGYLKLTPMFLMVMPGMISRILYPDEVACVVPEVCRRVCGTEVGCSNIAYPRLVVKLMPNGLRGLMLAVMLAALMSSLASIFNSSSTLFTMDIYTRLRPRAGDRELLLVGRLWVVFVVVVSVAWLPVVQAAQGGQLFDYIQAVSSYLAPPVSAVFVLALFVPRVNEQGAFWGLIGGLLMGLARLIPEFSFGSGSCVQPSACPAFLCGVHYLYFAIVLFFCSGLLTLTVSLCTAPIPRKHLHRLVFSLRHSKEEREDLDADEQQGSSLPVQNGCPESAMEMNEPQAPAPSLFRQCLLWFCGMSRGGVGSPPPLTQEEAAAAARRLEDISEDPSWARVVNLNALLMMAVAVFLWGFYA
Experimental: Assay for Inhibitory Effect on Human SGLT2 Activity
1) Construction of the Plasmid Vector Expressing Human SGLT2
Preparation of the cDNA library for PCR amplification was performed by reverse transcription of a total RNA deprived from human kidney (Ori gene) with oligo dT as the primer, using Super Script preamplification system (Gibco-BRL: LIFE TECHNOLOGIES). The DNA fragment coding for human SGLT2 was amplified by the PCR reaction, in which the human kidney cDNA library described above was used as the template and the following oligo nucleotides 0702F and 0712R, presented as sequence number 1 and 2 respectively, were used as the primers. The amplified DNA fragment was ligated into pCR (Invitrogen), a vector for cloning, according to standard method of the kit. The Escherichia coli HB101 was transformed according to usual method and then selection of the transformants was performed on the LB agar medium containing 50 μg/mL of kanamycin. […] After plasmid DNA was extracted and purified from this transformant, the base sequence of the DNA fragment inserted at the multi-cloning sites of the vector pcDNA3.1 (−) Myc/His-B was analyzed. […]

normal mice = conditions: J. Med. Chem., Vol. 39, pp. 3920–3928 (1996); cited from earlier work
ICR mice [3] = experiment: Acute toxicity test, Method A (oral); assay type: in vivo; conditions: 1000 mg/kg oral, male ICR mice, 5 animals, observation until 24 hours
Experimental: By adding of 0.5% sodium carboxymethylcellulose solution to the test compound, 100 mg/mL suspension was prepared. As experimental animal, male 6–7 weeks of age ICR mice fasted for 4 hours (Clea Japan, 28–33 g, 5 animals in each group) were used. The test suspension described above was orally administrated to the experimental animals described above at the dose of 10 mL/kg (1000 mg/kg) and then observation was performed until 24 hours after the administration.

SD rats [4] = experiment: Assay for the facilitatory effect on urinary glucose excretion, Method A (subcutaneous); assay type: in vivo, rat; conditions: oral glucose 2 g/kg, 4 hours, per 1 body
Experimental: as §1
As experimental animal, overnight fasted SD rats (SLC, male, 5 weeks of age, 120–150 g) were used. Test compound (25.40 mg) was suspended in 762 μL of ethanol and dissolved by adding of 3.048 mL of polyethylene glycol 400 and 3.81 mL of saline and then 3.3 mg/mL solution was prepared. A part of this solution was diluted with the solvent (saline:polyethylene glycol 400:ethanol=5:4:1) and then each solution at the concentration of 3.3, 1 or 0.33 (mg/mL) was prepared. Each of these solutions was subcutaneously administrated to the rats at the dose of 3 mL/kg (10, 3 and 1 mg/kg). For the control, just only the solvent (saline:polyethylene glycol 400:ethanol=5:4:1) was subcutaneously administrated at the dose of 3 mL/kg. Immediately after this subcutaneous administration, 200 g/L glucose solution was orally administered at the dose of 10 mL/kg (2 g/kg). The subcutaneous administration was performed with 26G needle and 1 mL syringe. The oral administration was performed with gastric tube for rat and 2.5 mL syringe. The head count in one group was 3. Collection of urine was performed in metabolic cage after these administrations were finished. The sampling time for collection of urine was 4 hours after the glucose administration. After collection of urine was finished, the urine volume was recorded and the urinary glucose concentration was measured. The glucose concentration was measured with a kit for laboratory test: Glucose B-Test WAKO (Wako Pure Chemical Industries, Ltd.). The amount of urinary glucose excretion in 4 hours per 1 body was calculated from urine volume and urinary glucose concentration.

Row | Structure (SMILES) | Death number (ICR mice [1]) | Amount of Urinary Glucose Excretion (SD rats [2]; 0.1 mg/kg intravenous) [mg] | Amount of Urinary Glucose Excretion (SD rats [2]; 1 mg/kg intravenous) [mg] | Amount of Urinary Glucose Excretion (SD rats [2]; 10 mg/kg intravenous) [mg] | IC50 (human SGLT2; COS-7 cells expressing transiently human SGLT2, uptake of methyl-α-D-(U-14C)glucopyranoside, 37° C., 2 hours) [µM] | inhibitory activity in human SGLT2 (in words) (human SGLT2; assay for inhibitory effect on human SGLT2 activity) | amount of excreted glucose (normal mice) | Death number (ICR mice [3]) | Amount of Urinary Glucose Excretion (SD rats [4]; 1 mg/kg subcutaneous) [mg] | Amount of Urinary Glucose Excretion (SD rats [4]; 3 mg/kg subcutaneous) [mg] | Amount of Urinary Glucose Excretion (SD rats [4]; 10 mg/kg subcutaneous) [mg]
1 | Cc1[nH]nc(O[C@@H]2O[C@H](CO)[C@@H](O)[C@H](O)[C@H]2O)c1Cc1ccc(OC(C)C)cc1 [Example 35, 3-(β-D-Glucopyranosyloxy)-4-[(4-isopropoxyphenyl)methyl]-5-methyl-1H-pyrazole] | 0/5 | 16 | 74 | 188 | – | – | – | – | – | – | –
2 | CSc1ccc(Cc2c(C(F)(F)F)[nH][nH]c2=O)cc1 [WAY-123783] | – | – | – | – | > 100 | extremely weak inhibitory activity | increased | – | – | – | –
3 | Cc1[nH]nc(O[C@@H]2O[C@H](CO)[C@@H](O)[C@H](O)[C@H]2O)c1Cc1ccc(C(C)C)cc1 [Example 45, 3-(β-D-Glucopyranosyloxy)-4-[(4-isopropylphenyl)methyl]-5-methyl-1H-pyrazole] | – | 2 | 45 | 132 | – | – | – | 0/5 | 22.1 | 83.2 | 153.3
